Laboratory results: patent US10829473B2, “Modulators of the cystic fibrosis transmembrane conductance regulator protein and methods of use” (AbbVie Overseas S.Á.R.L., priority 2017, dated 2020)
Like-named read-outs stand apart in the source and are kept apart here.

Target: T1, F508delCFTR (Homo sapiens, UniProt P13569, DEL508-508)
T1 construct: expressed in transfected cells; host or cells: CFBE41o- human lung derived epithelial cells (CFBE41o-F508delCFTR-HRP), doxycycline-inducible
Assay: Cell Surface Expression-Horse Radish Peroxidase (CSE-HRP) Assay;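 on EC50 (with co-corrector): co-corrector chromenyl benzoic acid corrector at 2 or 3 µM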;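 on Maximum % activity (without co-corrector): % of on-plate positive control chromenyl benzoic acid corrector at 2 or 3 µM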
Type: cell-based
Conditions: for Maximum % activity (with co-corrector) / Emax: maximum at any tested concentration; for Emax: read-out: Maximum % activity (without co-corrector)
Procedure, shortened: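 Corrector compounds were given as 8-point 3-fold series from 20 or 30 μM, with or without a 2 μM co-corrector, for 18-24 h at 33 °C. Surface HRP was read by luminol luminescence as % of positive control; variable-Hill-slope sigmoidal fitting gave EC50 from triplicate plates.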

[1] = test compound alone, without co-corrector, read-out: EC50 (without co-corrector)
[2] = with co-corrector, read-out: EC50 (with co-corrector)

T1 sequence (P13569 with tags, fused parts or gaps DEL508-508): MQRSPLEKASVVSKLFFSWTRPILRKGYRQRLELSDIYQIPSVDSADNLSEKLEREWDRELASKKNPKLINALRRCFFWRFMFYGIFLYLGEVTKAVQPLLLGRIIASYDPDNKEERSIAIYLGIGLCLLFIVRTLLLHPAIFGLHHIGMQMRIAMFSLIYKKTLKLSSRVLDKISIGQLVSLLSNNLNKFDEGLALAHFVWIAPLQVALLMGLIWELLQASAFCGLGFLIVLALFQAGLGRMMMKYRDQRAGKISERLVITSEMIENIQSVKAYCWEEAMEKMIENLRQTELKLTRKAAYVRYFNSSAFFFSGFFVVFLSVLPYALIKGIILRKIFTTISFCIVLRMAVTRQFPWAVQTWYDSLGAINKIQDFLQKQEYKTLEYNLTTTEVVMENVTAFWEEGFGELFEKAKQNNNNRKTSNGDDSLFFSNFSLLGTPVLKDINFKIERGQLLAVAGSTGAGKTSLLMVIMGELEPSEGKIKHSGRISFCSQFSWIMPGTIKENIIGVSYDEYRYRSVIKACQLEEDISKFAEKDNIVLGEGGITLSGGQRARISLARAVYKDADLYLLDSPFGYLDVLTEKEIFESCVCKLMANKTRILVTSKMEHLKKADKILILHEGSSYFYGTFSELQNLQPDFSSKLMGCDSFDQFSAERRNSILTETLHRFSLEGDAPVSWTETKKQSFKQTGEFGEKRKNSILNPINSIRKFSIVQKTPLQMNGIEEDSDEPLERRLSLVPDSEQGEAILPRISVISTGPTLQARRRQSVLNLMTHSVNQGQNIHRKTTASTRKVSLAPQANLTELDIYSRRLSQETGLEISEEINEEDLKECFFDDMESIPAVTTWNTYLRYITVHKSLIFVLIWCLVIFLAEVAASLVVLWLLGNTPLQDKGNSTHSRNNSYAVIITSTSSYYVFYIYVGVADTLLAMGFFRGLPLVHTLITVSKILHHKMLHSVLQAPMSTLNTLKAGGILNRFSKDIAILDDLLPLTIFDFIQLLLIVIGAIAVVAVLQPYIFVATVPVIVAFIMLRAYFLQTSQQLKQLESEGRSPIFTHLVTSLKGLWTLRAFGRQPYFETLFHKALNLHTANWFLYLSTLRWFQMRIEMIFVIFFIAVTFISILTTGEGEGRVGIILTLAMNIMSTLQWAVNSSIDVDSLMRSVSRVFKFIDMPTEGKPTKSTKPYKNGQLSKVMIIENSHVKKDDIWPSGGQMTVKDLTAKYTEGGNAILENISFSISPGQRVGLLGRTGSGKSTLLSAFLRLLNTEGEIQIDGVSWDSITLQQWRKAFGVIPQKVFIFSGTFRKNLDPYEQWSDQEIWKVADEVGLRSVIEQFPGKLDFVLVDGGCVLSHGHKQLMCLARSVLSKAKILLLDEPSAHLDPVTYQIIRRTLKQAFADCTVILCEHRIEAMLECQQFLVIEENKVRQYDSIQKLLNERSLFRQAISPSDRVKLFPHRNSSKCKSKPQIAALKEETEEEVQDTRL

Compound | EC50 [1] | Maximum % activity (with co-corrector) (with co-corrector) | EC50 [2] | Emax (without co-corrector)
COc1cccc(C2(C(=O)NS(=O)(=O)c3ccccc3C)CCOCC2)c1 [Example III-81, 4-(3-methoxyphenyl)-N-(2-methylbenzene-1-sulfonyl)oxane-4-carboxamide] | > 10 µM | + (<150) | > 10 µM | < 50%
Cc1cccc(C2(C(=O)NS(=O)(=O)c3ccccc3C)CCOCC2)c1 [Example III-82, N-(2-methylbenzene-1-sulfonyl)-4-(3-methylphenyl)oxane-4-carboxamide] | > 10 µM | + (<150) | > 10 µM | < 50%
Cc1ccccc1S(=O)(=O)NC(=O)C1(c2cccc(Cl)c2)CCCC1 [Example III-83, 1-(3-chlorophenyl)-N-(2-methylbenzene-1-sulfonyl)cyclopentane-1-carboxamide] | > 10 µM | ++ (≥150 and <350) | > 10 µM | < 50%
Cc1ccc(S(=O)(=O)NC(=O)C2(c3cccc(Cl)c3)CC2)nc1 [Example III-84, 1-(3-chlorophenyl)-N-(5-methylpyridine-2-sulfonyl)cyclopropane-1-carboxamide] | > 10 µM | + (<150) | > 10 µM | < 50%
COc1ccccc1C1(C(=O)NS(=O)(=O)c2ccccc2C)CC1 [Example III-85, 1-(2-methoxyphenyl)-N-(2-methylbenzene-1-sulfonyl)cyclopropane-1-carboxamide] | 3 to 10 µM | +++ (≥350) | 3 to 10 µM | 50 to 150%
Cc1ccccc1S(=O)(=O)NC(=O)C1(c2ccc3c(c2)OCO3)CC1 [Example III-86, 1-(2H-1,3-benzodioxol-5-yl)-N-(2-methylbenzene-1-sulfonyl)cyclopropane-1-carboxamide] | 3 to 10 µM | ++ (≥150 and <350) | 3 to 10 µM | < 50%
Cc1ccccc1S(=O)(=O)NC(=O)C1(c2ccc(Cl)cc2Cl)CC1 [Example III-87, 1-(2,4-dichlorophenyl)-N-(2-methylbenzene-1-sulfonyl)cyclopropane-1-carboxamide] | 3 to 10 µM | +++ (≥350) | 3 to 10 µM | 50 to 150%
Cc1ccccc1S(=O)(=O)NC(=O)C1(c2ccc(Cl)cc2)CC1 [Example III-88, 1-(4-chlorophenyl)-N-(2-methylbenzene-1-sulfonyl)cyclopropane-1-carboxamide] | 3 to 10 µM | ++ (≥150 and <350) | 3 to 10 µM | < 50%
CC(C)(C)OC(=O)N1CCC(C(=O)NS(=O)(=O)c2cccc3ccccc23)(c2ccc(F)cc2)CC1 [Example III-89, tert-butyl 4-(4-fluorophenyl)-4-[(naphthalene-1-sulfonyl)carbamoyl]piperidine-1-carboxylate] | 3 to 10 µM | ++ (≥150 and <350) | < 3 µM | < 50%
COc1ccc(C2(C(=O)NS(=O)(=O)c3cccc4ccccc34)CCCC2)cc1OC [Example III-90, 1-(3,4-dimethoxyphenyl)-N-(naphthalene-1-sulfonyl)cyclopentane-1-carboxamide] | > 10 µM | + (<150) | > 10 µM | < 50%
O=C(NS(=O)(=O)c1cccc2ccccc12)C1(c2ccc3c(c2)OC(F)(F)O3)CC1 [Example III-91, 1-(2,2-difluoro-2H-1,3-benzodioxol-5-yl)-N-(naphthalene-1-sulfonyl)cyclopropane-1-carboxamide] | > 10 µM | +++ (≥350) | 3 to 10 µM | > 150%
O=C(NS(=O)(=O)c1cccc2ccccc12)C1(c2cccc(Br)c2)CC1 [Example III-92, 1-(3-bromophenyl)-N-(naphthalene-1-sulfonyl)cyclopropane-1-carboxamide] | 3 to 10 µM | +++ (≥350) | 3 to 10 µM | > 150%
O=C(NS(=O)(=O)c1cccc2ncccc12)C1(c2cccc(Br)c2)CC1 [Example III-93, 1-(3-bromophenyl)-N-(quinoline-5-sulfonyl)cyclopropane-1-carboxamide] | 3 to 10 µM | +++ (≥350) | 3 to 10 µM | > 150%
COc1ccc(C)c(C2(C(=O)NS(=O)(=O)c3cccc4ncccc34)CCN(C)CC2)c1 [Example III-94, 4-(5-methoxy-2-methylphenyl)-1-methyl-N-(quinoline-5-sulfonyl)piperidine-4-carboxamide] | > 10 µM | + (<150) | > 10 µM | < 50%
COc1ncc(C(F)(F)F)cc1C1(C(=O)NS(=O)(=O)c2cccn3nccc23)CC1 [Example III-95, 1-[2-methoxy-5-(trifluoromethyl)pyridin-3-yl]-N-(pyrazolo[1,5-a]pyridine-4-sulfonyl)cyclopropane-1-carboxamide] | 3 to 10 µM | +++ (≥350) | 3 to 10 µM | > 150%
COc1ncc(C(F)(F)F)cc1C1(C(=O)NS(=O)(=O)c2cccc3ncn(C)c23)CC1 [Example III-96, 1-[2-methoxy-5-(trifluoromethyl)pyridin-3-yl]-N-(1-methyl-1H-benzimidazole-7-sulfonyl)cyclopropane-1-carboxamide] | 3 to 10 µM | +++ (≥350) | 3 to 10 µM | 50 to 150%
COc1ncc(C(F)(F)F)cc1C1(C(=O)NS(=O)(=O)c2cccc3cnn(C)c23)CC1 [Example III-97, 1-[2-methoxy-5-(trifluoromethyl)pyridin-3-yl]-N-(1-methyl-1H-indazole-7-sulfonyl)cyclopropane-1-carboxamide] | 3 to 10 µM | +++ (≥350) | 3 to 10 µM | > 150%
COc1ncc(C(F)(F)F)cc1C1(C(=O)NS(=O)(=O)c2cccc3[nH]ncc23)CC1 [Example III-98, N-(1H-indazole-4-sulfonyl)-1-[2-methoxy-5-(trifluoromethyl)pyridin-3-yl]cyclopropane-1-carboxamide] | 3 to 10 µM | +++ (≥350) | 3 to 10 µM | > 150%
COc1ccc(C#N)cc1C1(C(=O)NS(=O)(=O)c2cccc3ncccc23)CC1 [Example III-99, 1-(5-cyano-2-methoxyphenyl)-N-(quinoline-5-sulfonyl)cyclopropane-1-carboxamide] | 3 to 10 µM | +++ (≥350) | 3 to 10 µM | 50 to 150%
COc1ccc(C#N)cc1C1(C(=O)NS(=O)(=O)c2cccc3c2CCCN3)CC1 [Example III-100, 1-(5-cyano-2-methoxyphenyl)-N-(1,2,3,4-tetrahydroquinoline-5-sulfonyl)cyclopropane-1-carboxamide] | 3 to 10 µM | +++ (≥350) | 3 to 10 µM | > 150%
COc1ccc(C23CC(C2)C3)cc1C1(C(=O)NS(=O)(=O)c2cccc3c2CCCN3)CC1 [Example III-101, 1-[5-(bicyclo[1.1.1]pentan-1-yl)-2-methoxyphenyl]-N-(1,2,3,4-tetrahydroquinoline-5-sulfonyl)cyclopropane-1-carboxamide] | < 3 µM | +++ (≥350) | < 3 µM | > 150%
COc1cccc(C)c1C1(C(=O)NS(=O)(=O)c2cccc3c2ccn3C)CC1 [Example III-102] | 3 to 10 µM | +++ (≥350) | 3 to 10 µM | > 150%
COc1c(Cl)cc(Cl)c(OC)c1C1(C(=O)NS(=O)(=O)c2cccc3ncccc23)CC1 [Example III-103, 1-(3,5-dichloro-2,6-dimethoxyphenyl)-N-(quinoline-5-sulfonyl)cyclopropane-1-carboxamide] | 3 to 10 µM | +++ (≥350) | < 3 µM | > 150%
O=C(NS(=O)(=O)Cc1ccccc1)C1(c2ccc(Cl)cc2Cl)CC1 [Example III-104, 1-(2,4-dichlorophenyl)-N-(phenylmethanesulfonyl)cyclopropane-1-carboxamide] | > 10 µM | ++ (≥150 and <350) | 3 to 10 µM | < 50%
O=C(NS(=O)(=O)C(F)(F)F)C1(c2ccc(Cl)cc2Cl)CC1 [Example III-105, 1-(2,4-dichlorophenyl)-N-(trifluoromethanesulfonyl)cyclopropane-1-carboxamide] | > 10 µM | + (<150) | > 10 µM | < 50%
O=C(NS(=O)(=O)CC(F)(F)F)C1(c2ccc(Cl)cc2Cl)CC1 [Example III-106, 1-(2,4-dichlorophenyl)-N-(2,2,2-trifluoroethanesulfonyl)cyclopropane-1-carboxamide] | > 10 µM | + (<150) | > 10 µM | < 50%
CCCS(=O)(=O)NC(=O)C1(c2ccc(Cl)cc2Cl)CC1 [Example III-107, 1-(2,4-dichlorophenyl)-N-(propane-1-sulfonyl)cyclopropane-1-carboxamide] | > 10 µM | + (<150) | > 10 µM | < 50%
O=C(NS(=O)(=O)CCCCl)C1(c2ccc(Cl)cc2Cl)CC1 [Example III-108, N-(3-chloropropane-1-sulfonyl)-1-(2,4-dichlorophenyl)cyclopropane-1-carboxamide] | > 10 µM | ++ (≥150 and <350) | 3 to 10 µM | < 50%
